Laboratory results from publication PMC7069095, “A cell-permeable peptide-based PROTAC against the oncoprotein CREPT proficiently inhibits pancreatic cancer” (Theranostics, 2020).
Entries after “also recorded” stand apart in the source; their conditions may differ. Non-standard residues stand in square brackets, D forms with d. Residues, ends and D or L forms follow the SMILES beside them. Hyp = O=C(O)[C@@H]1C[C@@H](O)CN1; Ahx = NCCCCCC(=O)O

Experiments:
Type in all cases: cell-based
[1] = molecular target: T1, endogenous CREPT protein in MIA PaCa-2 cells (Homo sapiens, UniProt Q9NQG5); assay: Western blot of endogenous CREPT (degradation); settings: 24 h incubation
T1 construct: endogenous protein level of CREPT in Panc-1, AsPc-1 and MIA-PaCa-2 cells; endogenous in cells; host or cells: Panc-1, AsPc-1, MIA PaCa-2
T1 sequence (Q9NQG5 1-326): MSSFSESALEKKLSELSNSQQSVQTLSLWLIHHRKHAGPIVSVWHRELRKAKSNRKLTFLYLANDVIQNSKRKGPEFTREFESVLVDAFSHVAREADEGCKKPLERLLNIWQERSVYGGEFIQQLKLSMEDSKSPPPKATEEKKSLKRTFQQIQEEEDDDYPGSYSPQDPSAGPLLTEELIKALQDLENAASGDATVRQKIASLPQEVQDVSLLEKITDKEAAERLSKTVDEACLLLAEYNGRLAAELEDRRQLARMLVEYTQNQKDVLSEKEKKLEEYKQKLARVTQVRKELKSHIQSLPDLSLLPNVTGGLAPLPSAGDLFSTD
Method: (§1) For exogenous immunoprecipitation assays, HEK293T cells were plated in 60 mm dishes and then transfected with the indicated plasmids. After 24 h, cells were harvested using RIPA buffer (50 mM Tris-HCl pH 8.0, 2 mM EDTA pH 8.0, 150 mM NaCl, 1% NP-40, 0.5% sodium deoxycholate, 0.1% SDS) with mixed protease inhibitors. Cell lysates were incubated with 2 μg of the indicated antibodies and 30 μL of protein A/G-Sepharose beads at 4 °C overnight. Beads were eluted five times with lysis buffer (50 mM Tris-HCl pH 7.6, 1 mM EDTA pH 8.0, 165 mM NaCl, 0.5% NP-40), and thereafter, a western blot assay was performed to analyze the association by using the indicated antibodies. Western blot was performed as previously reported. Anti-β-actin and anti-Flag antibodies were purchased from Sigma. Anti-Myc antibody was purchased from Santa Cruz Biotechnology. Antibody against CREPT was produced in the laboratory.
(§2) To address whether PRTC could induce CREPT degradation, we examined the endogenous protein level of CREPT in Panc-1, AsPc-1 and MIA-PaCa-2 cells in the presence of different dosages of PRTC. […] Consistently, treatment with PRTC led to decreases in CREPT protein at different times (Figure 5B, S3A). […] To further visualize the degradation process, we stained the endogenous CREPT protein with an antibody against CREPT in the cells treated with FITC-labeled PRTC.
(§3) Figure S3. PRTC induces CREPT degradation. […]

[2] = molecular target: T2, endogenous CREPT protein in AsPc-1 cells (Homo sapiens, UniProt Q9NQG5); assay: Western blot of endogenous CREPT (degradation); settings: 24 h incubation
T2 construct: endogenous protein level of CREPT in Panc-1, AsPc-1 and MIA-PaCa-2 cells; endogenous in cells; host or cells: Panc-1, AsPc-1, MIA PaCa-2
T2 sequence (Q9NQG5 1-326): T1 sequence (Q9NQG5 1-326)
Method: as §1, §2, §3

MIA PaCa-2 cells = assay: Colony formation; settings: 10 μM, than the control cells
Method: (§4) Cells were seeded into 6-well plates (500 cells per well) and cultured for 10 days, then washed with PBS and stained with 0.1% crystal violet. The number of colonies was counted by ImageJ and presented as the mean ± standard deviation (SD) from three individual experiments. […]
(§5) tumorigenesis in AsPc-1 and MIA PaCa-2 cells. (A-B) Colony formation of AsPc-1 respectively treated with deionized H2O (Ctrl), 10 μM PRTC, 10 μM PRTC-m and 10 μM PRTC-v. Cells were seeded into 6-well plates (500 cells per well) and cultured for 8 days.(C) CellproliferationassayofAsPc-1cellstreatedwith deionizedwater(Ctrl), 10μMPRTC,10μM PRTC-m and 10 μM PRTC-v.(D-E) Colony formation of MIA PaCa-2 respectively treated with deionized H2O (Ctrl), 10 μM PRTC, PRTC-m and PRTC-v.(F) Cell proliferation assay of MIA PaCa-2cells treatedwith deionizedH 2O(Ctrl),10μMPRTC, PRTC-mandPRTC-v. (G)Tumor volumesofxenografttumors,whichweremeasuredbycalipers. V=( a× b2)/2(V isvolume, a is the length of the tumor,b is the width of the tumor). (H) Cell proliferation assay of […]
(§6) is anormal pancreatic epithelial cell line.
(§7) (1 picture or pasted object on this page, not shown here)

AsPc-1 cells = assay: Colony formation; settings: 10 μM, 500 cells per well, 8 days, than the control cells
Method: as §4, §5, §6, §7

Panc-1 cells [3] = assay: Cell viability assay (CCK-8); settings: 10 μM, CCK-8, OD450, three individual experiments
Method: (§8) Cells were seeded into 96-well plates (1000 cells per well) and cultured for the indicated times. Cell viability was evaluated using a CCK-8 kit (Solarbio, Beijing, China). The value of OD450 was calculated by spectrophotometer and presented as the mean ± standard deviation (SD) from three individual experiments.

Panc-1 cells [4] = assay: Flow cytometry, entry of FITC-labeled peptides into cells; settings: conclusion from flow cytometry of FITC-labeled peptides in pancreatic cancer cells
Method: (§9) To examine whether PRTC could permeate into pancreatic cancer cells, we synthesized fluorescein isothiocyanate (FITC) labeled PRTC, PRTC-m, PRTC-v, PRTC-r (PRTC without RRRRK) as well as TAT (a widely used cell penetrating peptide, as a positive control).
(§10) Figure 3 Identification of the permeability of PRTC in Panc-1 cells. (A) Entry of FITC- labeled peptides into Panc-1 cells tested by flow cytometry. FITC-TAT is the positive control. Measurements were performed in triplicate. (B) Quantification of cellular uptake of Panc-1 cells treated with different concentrations of FITC-PRTC. (C) Confocal microscope images of Panc-1 cells treated with 10 μM FITC labeled peptides. Scale bars, 10 μm. (D) Confocal microscope images of Panc-1 cells treated with different dosages of FITC-PRTC. Scale bars, 10 μm.

HPDE6-C7 cells = assay: Cell proliferation assay; settings: little CREPT expression
Method: as §8, with “experiments. […]” for “experiments.”
(H) Cell proliferation assay of
HPDE6-C7 cells. […] HPDE6-C7
as §6, §7

Panc-1 cells [5] = assay: Confocal fluorescence imaging of FITC labeled peptides in cells; settings: flow cytometry and confocal imaging of FITC-labeled PRTC; Panc-1, AsPc-1, MIA PaCa-2 cells
Method: as §9, §10

Panc-1 cells [6] = assay: Colony formation; settings: 500 cells per well, 10 days, than the control cells
Method: Cells were seeded into 6-well plates (500 cells per well) and cultured for 10 days, then washed with PBS and stained with 0.1% crystal violet. The number of colonies was counted by ImageJ and presented as the mean ± standard deviation (SD) from three individual experiments.

## CC[C@H](C)[C@H](N)C(=O)N[C@@H](Cc1ccc(O)cc1)C(=O)N1C[C@H](O)C[C@H]1C(=O)N[C@@H](C)C(=O)N[C@@H](CC(C)C)C(=O)NCCCCCC(=O)N[C@@H](CCCCN)C(=O)N[C@@H](CC(=O)O)C(=O)N[C@H](C(=O)N[C@@H](CC(C)C)C(=O)N[C@@H](CO)C(=O)N[C@@H](CCC(=O)O)C(=O)N[C@@H](CCCCN)C(=O)N[C@@H](CCC(=O)O)C(=O)N[C@@H](CCCCN)C(=O)N[C@@H](CCCCN)C(=O)N[C@@H](CC(C)C)C(=O)N[C@@H](CCC(=O)O)C(=O)N[C@@H](CCC(=O)O)C(=O)N[C@@H](Cc1ccc(O)cc1)C(=O)N[C@@H](CCCCN)C(=O)N[C@@H](CCC(N)=O)C(=O)N[C@@H](CCCCN)C(=O)N[C@@H](CC(C)C)C(=O)N[C@@H](C)C(=O)N[C@@H](CCCNC(=N)N)C(=O)N[C@H](C(=O)N[C@@H](CCCNC(=N)N)C(=O)N[C@@H](CCCNC(=N)N)C(=O)N[C@@H](CCCNC(=N)N)C(=O)N[C@@H](CCCNC(=N)N)C(=O)N[C@@H](CCCCN)C(=O)O)C(C)C)C(C)C [PRTC] (H-IY[Hyp]AL[Ahx]KDVLSEKEKKLEEYKQKLARVRRRRK-OH; N-terminus and C-terminus assumed)
[1]
  CREPT protein level upon different dosages: dramatically decreased
[2]
  CREPT protein level upon different dosages: dramatically decreased
MIA PaCa-2 cells
  colony formation: fewer colonies
AsPc-1 cells
  colony formation: fewer colonies
Panc-1 cells [3]
  cell proliferation: dramatically inhibited
Panc-1 cells [4]
  cell permeability: strong cell permeability
HPDE6-C7 cells
  cell proliferation of a normal pancreatic epithelial cell line: failed to influence; also recorded: failed to inhibit
Panc-1 cells [5]
  time to permeate into pancreatic cancer cells: ≤ 2 h
Panc-1 cells [6]
  colony formation: fewer colonies
